Results reported in PubChem BioAssay AID330 (DTP/NCI, 2004).
Where “and” joins values, the source holds several entries; their conditions need not be identical. Identical values can stand only once. Inconclusive results and toxic doses are left out. Rule for the calls: active = survival T/C of 150% or more; inactive = T/C below 125% in these data.

Test system: P388 leukemia ip, CD2F1 mice, survival T/C
Test: NCI In Vivo Anticancer Drug Screen. Data for tumor model P388 Leukemia (intraperitoneal) in CD2F1 (CDF1) mice
Details: endpoint: median survival time, higher = longer survival
Method in brief: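 Mice carrying the transplanted tumor received test compound or vehicle. Survival was recorded in each group, and the value is the treated-group measurement divided by that of the vehicle-treated control group.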

[1] = dose: 25.0 mg/kg/injection, schedule: Q01DX009 (ip), vehicle: saline with Tween-80
[2] = dose: 50.0 mg/kg/injection, schedule: Q01DX005 (ip), vehicle: saline with Tween-80
[3] = dose: 100.0 mg/kg/injection, schedule: Q01DX005 (ip), vehicle: saline with Tween-80
[4] = dose: 50.0 mg/kg/injection, schedule: Q01DX009 (ip), vehicle: saline with Tween-80
[5] = dose: 100.0 mg/kg/injection, schedule: Q01DX009 (ip), vehicle: saline with Tween-80
[6] = dose: 200.0 mg/kg/injection, schedule: Q01DX009 (ip), vehicle: saline with Tween-80
[7] = dose: 60.0 mg/kg/injection, schedule: Q01DX005 (ip), vehicle: saline with Tween-80
[8] = dose: 120.0 mg/kg/injection, schedule: Q01DX005 (ip), vehicle: saline with Tween-80
[9] = dose: 240.0 mg/kg/injection, schedule: Q01DX005 (ip), vehicle: saline with Tween-80

Measured: T/C

CCCCCCCCCCCCCCCC(=O)OCC1OC(n2ccc(N)nc2=O)C(O)C1O (configuration not stated)
active: dose: 0.88 mg/kg/injection, schedule: Q01DX009 (ip), vehicle: saline with Tween-80 152 % of control | dose: 1.32 mg/kg/injection, schedule: Q01DX009 (ip), vehicle: saline with Tween-80 166 % of control | dose: 2.0 mg/kg/injection, schedule: Q01DX009 (ip), vehicle: saline with Tween-80 185 % of control | dose: 3.0 mg/kg/injection, schedule: Q01DX009 (ip), vehicle: saline with Tween-80 200 % of control | dose: 3.13 mg/kg/injection, schedule: Q04DX003 (ip), vehicle: saline with Tween-80 163 % of control | dose: 6.25 mg/kg/injection, schedule: Q04DX003 (ip), vehicle: saline with Tween-80 181 % of control and 195 % of control | dose: 12.5 mg/kg/injection, schedule: Q04DX003 (ip), vehicle: saline sonified 204 % of control | dose: 12.5 mg/kg/injection, schedule: Q04DX003 (ip), vehicle: saline with Tween-80 218 % of control and 222 % of control | dose: 15.0 mg/kg/injection, schedule: Q01DX009 (ip), vehicle: saline with Tween-80 221 % of control and 345 % of control | dose: 20.0 mg/kg/injection, schedule: Q01DX001 (ip), vehicle: saline with Tween-80 154 % of control | dose: 20.0 mg/kg/injection, schedule: Q01DX009 (ip), vehicle: saline with Tween-80 228 % of control and 538 % of control and 548 % of control | dose: 24.0 mg/kg/injection, schedule: Q01DX009 (ip), vehicle: saline with Tween-80 344 % of control | [1] 170 % of control and 539 % of control | dose: 25.0 mg/kg/injection, schedule: Q04DX003 (ip), vehicle: saline sonified 250 % of control | dose: 25.0 mg/kg/injection, schedule: Q04DX003 (ip), vehicle: saline with Tween-80 254 % of control | dose: 31.75 mg/kg/injection, schedule: Q04DX002 (ip), vehicle: Klucel (hydroxypropylcellulose) (HPC) 250 % of control and 256 % of control | dose: 32.0 mg/kg/injection, schedule: Q04DX003 (ip), vehicle: saline with Tween-80 194 % of control and 264 % of control | dose: 37.5 mg/kg/injection, schedule: Q01DX001 (ip), vehicle: saline with Tween-80 181 % of control | dose: 40.0 mg/kg/injection, schedule: Q01DX001 (ip), vehicle: saline with Tween-80 204 % of control | dose: 48.0 mg/kg/injection, schedule: Q04DX003 (ip), vehicle: saline with Tween-80 216 % of control and 350 % of control | dose: 50.0 mg/kg/injection, schedule: Q01DX001 (ip), vehicle: Klucel (hydroxypropylcellulose) (HPC) 155 % of control | dose: 50.0 mg/kg/injection, schedule: Q04DX003 (ip), vehicle: saline sonified 250 % of control | dose: 60.0 mg/kg/injection, schedule: Q03DX003 (ip), vehicle: saline with Tween-80 536 % of control | dose: 62.5 mg/kg/injection, schedule: Q04DX002 (ip), vehicle: Klucel (hydroxypropylcellulose) (HPC) 263 % of control and 275 % of control | dose: 70.0 mg/kg/injection, schedule: Q03DX003 (ip), vehicle: saline with Tween-80 536 % of control | dose: 72.0 mg/kg/injection, schedule: Q04DX003 (ip), vehicle: saline with Tween-80 213 % of control and 511 % of control | dose: 75.0 mg/kg/injection, schedule: Q01DX001 (ip), vehicle: saline with Tween-80 181 % of control | dose: 80.0 mg/kg/injection, schedule: Q03DX003 (ip), vehicle: saline with Tween-80 459 % of control | dose: 90.0 mg/kg/injection, schedule: Q03DX003 (ip), vehicle: saline with Tween-80 378 % of control | dose: 125.0 mg/kg/injection, schedule: Q04DX002 (ip), vehicle: Klucel (hydroxypropylcellulose) (HPC) 263 % of control and 275 % of control
inactive: dose: 0.29 mg/kg/injection, schedule: Q01DX009 (ip), vehicle: saline with Tween-80 104 % of control | dose: 0.44 mg/kg/injection, schedule: Q01DX009 (ip), vehicle: saline with Tween-80 104 % of control | dose: 0.66 mg/kg/injection, schedule: Q01DX009 (ip), vehicle: saline with Tween-80 122 % of control

O=C1NC(O)c2cc(Cl)cc(Cl)c2O1 (configuration not stated)
inactive: dose: 50.0 mg/kg/injection, schedule: Q01DX005 (ip), vehicle: Klucel (hydroxypropylcellulose) (HPC) 102 % of control | dose: 100.0 mg/kg/injection, schedule: Q01DX005 (ip), vehicle: Klucel (hydroxypropylcellulose) (HPC) 102 % of control | dose: 200.0 mg/kg/injection, schedule: Q01DX005 (ip), vehicle: Klucel (hydroxypropylcellulose) (HPC) 115 % of control

CCOC(=O)C1=C(N)C2CC(C)=C(C)CN2C1 (configuration not stated)
inactive: [2] 98 % of control | [3] 100 % of control

CN(C)c1ccc(C=C2C(=O)NC(=O)NC2=O)cc1
inactive: [1] 118 % of control | [4] 113 % of control | [5] 116 % of control | [6] 106 % of control

C[Si](C)(C)CN=P(c1ccccc1)(c1ccccc1)c1ccccc1
inactive: [7] 102 % of control | [8] 103 % of control | [9] 105 % of control

COc1ccc(C(=NO)c2ccc(OC)cc2)cc1
inactive: dose: 100.0 mg/kg/injection, schedule: Q04DX003 (ip), vehicle: saline 100 % of control | dose: 200.0 mg/kg/injection, schedule: Q04DX003 (ip), vehicle: saline 100 % of control | dose: 400.0 mg/kg/injection, schedule: Q04DX003 (ip), vehicle: saline 104 % of control

O=S1(=O)NC(=NC2CCCC2)c2ccccc21
inactive: [2] 111 % of control | [3] 102 % of control | dose: 200.0 mg/kg/injection, schedule: Q01DX005 (ip), vehicle: saline with Tween-80 101 % of control

COc1c(Br)cc(/C=C/[N+](=O)[O-])cc1Br
inactive: dose: 6.25 mg/kg/injection, schedule: Q01DX009 (ip), vehicle: saline with Tween-80 124 % of control | dose: 12.5 mg/kg/injection, schedule: Q01DX009 (ip), vehicle: saline with Tween-80 112 % of control

O=C(Nc1ccccc1C(=O)O)c1cc([N+](=O)[O-])cc([N+](=O)[O-])c1
inactive: [1] 114 % of control | [4] 113 % of control | [5] 109 % of control

CC1C2CC3OC(=O)C1C3C2 (configuration not stated)
inactive: dose: 12.5 mg/kg/injection, schedule: Q01DX005 (ip), vehicle: saline with Tween-80 102 % of control | dose: 25.0 mg/kg/injection, schedule: Q01DX005 (ip), vehicle: saline with Tween-80 102 % of control | [2] 99 % of control and 106 % of control

Cc1ccc(NC(=O)N(CCCCl)N=O)cc1
inactive: [4] 86 % of control | dose: 100.0 mg/kg/injection, schedule: Q04DX003 (ip), vehicle: saline with Tween-80 95 % of control | [6] 100 % of control | dose: 200.0 mg/kg/injection, schedule: Q04DX003 (ip), vehicle: saline with Tween-80 90 % of control

COc1cc(NC(=O)c2ccc(NC(=O)c3ccc(N)cc3)cc2)c(OC)cc1N=Nc1ccc(N=Nc2ccc3cc(S(=O)(=O)O)cc(S(=O)(=O)O)c3c2)c(C)c1
inactive: dose: 50.0 mg/kg/injection, schedule: Q01DX005 (ip), vehicle: saline 106 % of control (2×) and 111 % of control | dose: 100.0 mg/kg/injection, schedule: Q01DX005 (ip), vehicle: saline 106 % of control and 109 % of control and 115 % of control | dose: 200.0 mg/kg/injection, schedule: Q01DX005 (ip), vehicle: saline 114 % of control and 115 % of control and 123 % of control | dose: 400.0 mg/kg/injection, schedule: Q01DX005 (ip), vehicle: saline 116 % of control and 117 % of control

COc1cccc(/C=C2/C(=O)N(Cc3ccco3)SC2=S)c1OC
inactive: dose: 50.0 mg/kg/injection, schedule: Q01DX009 (ip), vehicle: Klucel (hydroxypropylcellulose) (HPC) 97 % of control | dose: 100.0 mg/kg/injection, schedule: Q01DX009 (ip), vehicle: Klucel (hydroxypropylcellulose) (HPC) 95 % of control | dose: 200.0 mg/kg/injection, schedule: Q01DX009 (ip), vehicle: Klucel (hydroxypropylcellulose) (HPC) 92 % of control

COc1ccc2c(N)c3cccc[n+]3cc2c1OC
inactive: dose: 6.25 mg/kg/injection, schedule: Q04DX003 (ip), vehicle: water 106 % of control and 108 % of control | dose: 12.5 mg/kg/injection, schedule: Q04DX003 (ip), vehicle: water 116 % of control and 121 % of control | dose: 25.0 mg/kg/injection, schedule: Q04DX003 (ip), vehicle: water 118 % of control and 122 % of control | dose: 50.0 mg/kg/injection, schedule: Q04DX003 (ip), vehicle: water 103 % of control

Cc1cc(=O)oc2ccc(C(=O)/C=C/N(C)C)c(O)c12
inactive: [7] 96 % of control | [8] 92 % of control | [9] 89 % of control

CO/C=N/c1cn2c(n1)CN=C2
inactive: dose: 100.0 mg/kg/injection, schedule: Q01DX001 (ip), vehicle: saline 102 % of control | dose: 200.0 mg/kg/injection, schedule: Q01DX001 (ip), vehicle: saline 95 % of control | dose: 400.0 mg/kg/injection, schedule: Q01DX001 (ip), vehicle: saline 96 % of control

Cc1ccc(NCC2CCCN3CCCCC23)c2c(=O)c3cc(O)ccc3sc12 (configuration not stated)
inactive: dose: 100.0 mg/kg/injection, schedule: Q04DX002 (ip), vehicle: saline with Tween-80 97 % of control | dose: 200.0 mg/kg/injection, schedule: Q04DX002 (ip), vehicle: saline with Tween-80 102 % of control
